# Experimental data as given in patent US7326700B2, “Cyclohexenyl phenyl carboxamides tocolytic oxytocin receptor antagonists” (Wyeth, priority 2001, dated 2008).
# Structures can show the parent of a compound that is named as a salt.
# Target: T1, human vasopressin V1a receptor subtype (Homo sapiens, UniProt P37288)
# T1 construct: host or cells: CHO cells, stably transfected (pZeoSV vector for the Thibonnier line)
# Assay: Vasopressin binding in CHO cell membranes expressing human vasopressin V1a subtype receptors ([3H]Manning ligand radioligand binding)
# Details: 100 nM
# Excerpt: Chinese hamster ovary cells (CHO cells) stably transfected with the human vasopressin V1a subtype receptors were either obtained from Biosignal Inc., 1744 rue Williams, Montreal, Quebec, Canada or obtained from M. Thibonnier, Case Western Reserve University School of Medicine, Cleveland, Ohio.
# CHO cells transfected with the human vasopressin V1a subtype receptors obtained from M. Thibonnier (pZeoSV vector) are allowed to grow to confluency (approx. >90%) in T-150 flasks under sterile conditions, in a cell culture medium consisting of F-12 Nutrient Mixture (HAM) with L-glutamine (Gibco Cat. #11765-054) containing 15 mM HEPES (Gibco Cat. #15630-080), 1% antibiotic/antimycotic (add 5 mL 100×, Gibco Cat. #15240-062 per 500 mL F-12), 250 μg/mL Zeocin (add 1.25 mL of 100 mg/mL Invitrogen R-250-01 per 500 mL F-12) and 10% Fetal Bovine Serum (Qualified, heat inactivated, Gibco Cat. #16140-063). The medium is removed by aspiration and the cells are washed with 10 mL of Hank's Balanced Salt solution (Gibco Cat. #14175-095). The salt solution is removed by aspiration and the cells are trypsinized with 5 mL of trypsin-EDTA (0.05% trypsin, 0.53 mM EDTA-4Na, Gibco Cat. #25300-070) for 1 min. The trypsin is removed by aspiration and the cells dislodged by tapping. Cell Culture medium (eg, 30 mL for 1:30 split) is immediately added and mixed well to inactivate trypsin. 1 mL of detached cells is added to new culture flasks containing fresh cell culture medium (eg, into 25 mL per T-150 flask), and mixed gently. The cells are incubated at 37° C. in 5% CO2. The medium is changed at 3 to 4 days interval (or as appropriate). The cells grow to confluency (approx. >75%-95%) within 7-8 days. All steps are done under sterile conditions.
# The cells are washed twice gently with Hank's Balanced Salt solution (e.g,. use 10 mL per T-150 flask). The excess is removed and the cells are bathed for 15-30 min. in an enzyme-free Cell Dissociation Buffer (e.g. use 8 mL Hank's Based, Gibco Cat. #13150-016 per T-150 flask) until the cells are loosened. The contents are transferred to centrifuge tubes (50 mL) kept in an ice bath. All subsequent steps are done at 4° C. The tubes are centrifuged at 300×g for 15 min (1380 rpm on SORVAL, Model RT6000D, using the rotor for 50 mL tubes). The supernatant is discarded and the cells suspended in homogeneizing buffer (10 mM Tris-HCl containing 0.25 M sucrose and 1 mM EDTA, pH 7.4) ensuring that the volume of the buffer is about ten times the volume of the cell pellet. The cells are pooled into a centrifuge tube (50 mL) and homogenized with Polytron at setting 6 for 10 sec. The homogenate is transferred into a Potter-Elvjehm homogenizer and homogenized with 3 strokes. The homogenate is centrifuged at 1500×g for 10 min at 4° C. (3100 rpm using SORVAL, model RT6000D, using the rotor for 50 mL tubes). The pellet is discarded. The supernatant is centrifuged at 100,000×g for 60 min. at 4° C. (Beckman L8-80M ultracentrifuge; spin at 37,500 rpm with rotor type 70 Ti for 50 mL tubes; 38,000 rpm with type 80Ti for 15 mL tubes; or 35,800 rpm with rotor type 45Ti). The supernantant is discarded and the pellet suspended in 3 to 4 mL of Tris buffer (50 mM TRIS-HCl, pH 7.4). The protein content is estimated by the Bradford or Lowry method. The volume of the membrane suspension is adjusted with the membrane buffer (50 mM Tris-HCl containing 0.1% BSA and 0.1 mM PMSF) to give 3.0 mg/mL (or as appropriate) of protein. The membranes are aliquoted and stored at −70° C.
# In wells of a 96-well format microtiter plate, is added 90, 110 or 130 μL (to make up a final volume of 200 μL) of assay buffer containing 50 mM of Tris-HCl (pH 7.4), BSA (heat inactivated, protease-free), […], 1 mg % aprotinin, 1 mg % leupeptin, 2 mg % 1,10-phenanthroline, 10 mg % trypsin inhibitor, and 0.1 mM PMSF. The inhibitors are added on the day of the experiment. […]
# T1 sequence (P37288 whole entry): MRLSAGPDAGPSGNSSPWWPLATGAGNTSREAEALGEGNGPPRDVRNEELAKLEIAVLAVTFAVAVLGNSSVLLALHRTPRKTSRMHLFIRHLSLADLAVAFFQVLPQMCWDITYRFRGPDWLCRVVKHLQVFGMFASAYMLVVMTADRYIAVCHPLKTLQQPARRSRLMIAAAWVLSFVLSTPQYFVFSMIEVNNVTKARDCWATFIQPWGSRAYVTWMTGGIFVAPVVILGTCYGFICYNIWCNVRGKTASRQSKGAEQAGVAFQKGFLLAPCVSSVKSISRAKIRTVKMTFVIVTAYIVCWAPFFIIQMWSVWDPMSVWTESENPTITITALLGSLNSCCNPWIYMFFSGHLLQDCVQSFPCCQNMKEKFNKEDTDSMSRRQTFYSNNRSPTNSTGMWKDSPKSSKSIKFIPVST
Compound,inhibition at 0.1 µM [%],V1a % inhibition @ 100 nM [%]
"Cc1cc(C(=O)N2Cc3ccc(C(=O)N4CCN(C)CC4)n3Cc3ccccc32)ccc1C1=CCCc2ccccc21 [Example 6, {10-[4-(3,4-Dihydro-naphthalen-1-yl)-3-methyl-benzoyl]-10,11-dihydro-5H-benzo[e]pyrrolo[1,2-a][1,4]diazepin-3-yl}-(4-methyl-piperazin-1-yl)-methanone]",4,–
"Cc1cc(C(=O)N2Cc3ccc(C(=O)N(C)CCN(C)C)n3Cc3ccccc32)ccc1C1=CCCCC1 [Example 15, 10-[4-(1-Cyclohex-1-en-1-yl)-3-methylbenzoyl]-N-[2-(dimethylamino)ethyl]-N-methyl-10,11-dihydro-5H-pyrrolo[2,1-c][1,4]benzodiazepine-3-carboxamide]",–,71
"Cc1cc(C(=O)N2Cc3ccc(C(=O)NCCN4CCCCC4)n3Cc3ccccc32)ccc1C1=CCCCC1 [Example 20, 10-[4-(1-Cyclohex-1-en-1-yl)-3-methylbenzoyl]-N-[2-(1-piperidinyl)ethyl]-10,11-dihydro-5H-pyrrolo[2,1-c][1,4]benzodiazepine-3-carboxamide]",–,23
"Cc1cc(C(=O)N2Cc3ccc(C(=O)NCCC4CCCN4C)n3Cc3ccccc32)ccc1C1=CCCCC1 (stereo not shown) [Example 21, 10-[4-(1-Cyclohex-1-en-1-yl)-3-methylbenzoyl]-N-[2-(1-methyl-2-pyrrolidinyl)ethyl]-10,11-dihydro-5H-pyrrolo[2,1-c][1,4]benzodiazepine-3-carboxamide]",–,28
"Cc1cc(C(=O)N2Cc3ccc(C(=O)N4CCC(N5CCCC5)CC4)n3Cc3ccccc32)ccc1C1=CCCCC1 [Example 19, {10-[4-(1-Cyclohex-1-en-1-yl)-3-methylbenzoyl]-10,11-dihydro-5H-pyrrolo[2,1c][1,4]benzodiazepin-3-yl}[4-(1-pyrrolidinyl)-1-piperidinyl]methanone]",–,33
"Cc1cc(C(=O)N2Cc3ccc(C(=O)NCCCn4ccnc4)n3Cc3ccccc32)ccc1C1=CCCCC1 [Example 18, 10-[4-(1-Cyclohex-1-en-1-yl)-3-methylbenzoyl]-N-[3-(1H-imidazol-1-yl)propyl]10,11-dihydro-5H-pyrrolo[2,1-c][1,4]benzodiazepine-3-carboxamide]",–,7
"Cc1cc(C(=O)N2Cc3ccc(C(=O)N(C)CCCN(C)C)n3Cc3ccccc32)ccc1C1=CCCCC1 [Example 16, 10-[4-(1-Cyclohex-1-en-1-yl)-3-methylbenzoyl]-N-[3-(dimethylamino)propyl]-N-methyl-10,11-dihydro-5H-pyrrolo[2,1-c][1 ,4]benzodiazepine-3-carboxamide]",–,55
"Cc1cc(C(=O)N2Cc3ccc(C(=O)N4CCN(C)CC4)n3Cc3ccccc32)ccc1C1=CCCCC1 [Example 4, [10-(4-Cyclohex-1-en-1-yl-3-methyl-benzoyl)-10,11-dihydro-5H-pyrrolo[2,1-c][1,4]benzodiazepin-3-yl]-(4-methyl-piperazin-1-yl)-methanone]",26,–
"CC1=C(c2ccc(C(=O)N3Cc4ccc(C(=O)N5CCN(C)CC5)n4Cc4ccccc43)cc2C)CCC[C@H]1O [Example 11, [4-((3R)-3-Hydroxy-2-methyl-cyclohex-1-en-1-yl)-3-methyl-phenyl]-[3-(4-methyl-piperazine-1-carbonyl)-10,11-dihydro-5H-pyrrolo [2,1-c][1,4]benzodiazepin-10-yl]-methanone]",26,–
"Cc1cc(C(=O)N2Cc3ccc(C(=O)N4CC[C@@H](N(C)C)C4)n3Cc3ccccc32)ccc1C1=CCCCC1 [Example 27, {10-[4-(1-Cyclohex-1-en-1-yl)-3-methylbenzoyl]-10,11-dihydro-5H-pyrrolo[2,1-c][1,4]benzodiazepin-3-yl}[(3R)-3-(dimethylamino)pyrrolidinyl]methanone]",–,62
"C=CCN1CCN(C(=O)c2ccc3n2Cc2ccccc2N(C(=O)c2ccc(C4=CCCCC4)c(C)c2)C3)CC1 [Example 24, (4-Allyl-1-piperazinyl){10-[4-(1-cyclohex-1-en-1-yl)-3-methylbenzoyl]-10,11-dihydro-5H-pyrrolo[2,1-c][1,4]benzodiazepin-3-yl}methanone]",–,12
"Cc1cc(C(=O)N2Cc3ccc(C(=O)N4CCN(C(C)C)CC4)n3Cc3ccccc32)ccc1C1=CCCCC1 [Example 25, {10-[4-(1-Cyclohex-1-en-1-yl)-3-methylbenzoyl]-1 0,11-dihydro-5H-pyrrolo[2,1-c][1,4]benzodiazepin-3-yl}(4-isopropyl-1-piperazinyl)methanone]",–,24
"Cc1cc(C(=O)N2Cc3ccc(C(=O)N4CCN(CCCN(C)C)CC4)n3Cc3ccccc32)ccc1C1=CCCCC1 [Example 5, [10-(4-Cyclohex-1-en-1-yl-3-methyl-benzoyl)-10,11-dihydro-5H-pyrrolo[2,1-c][1,4]benzodiazepin-3-yl]-[4-(3-dimethylamino-propyl)-piperazin-1-yl]-methanone]",56,–
"Cc1cc(C(=O)N2Cc3ccc(C(=O)N4CCN(CCN5CCOCC5)CC4)n3Cc3ccccc32)ccc1C1=CCCCC1 [Example 23, {10-[4-(1-Cyclohex-1-en-1-yl)-3-methylbenzoyl]-10,11-dihydro-5H-pyrrolo[2,1-c][1,4]benzodiazepin-3-yl}{4-[2-(4-morpholinyl)ethyl]-1-piperazinyl}methanone]",–,27
"Cc1cc(C(=O)N2Cc3ccc(C(=O)N4CCC(N5CCCCC5)CC4)n3Cc3ccccc32)ccc1C1=CCCCC1 [Example 17, {10-[4-(1-Cyclohex-1-en-1-yl)-3-methylbenzoyl]-10,11-dihydro-5H-pyrrolo[2,1-c][1,4]benzodiazepin-3-yl}[4-(1-piperidinyl)-1-piperidinyl]methanone]",–,30
"Cc1cc(C(=O)N2Cc3ccc(C(=O)N4CCN(CCCN(C)C)CC4)n3Cc3ccccc32)ccc1C1=CCCc2ccccc21 [Example 7, {10-[4-(3,4-Dihydro-naphthalen-1-yl)-3-methyl-benzoyl]-10,11-dihydro-5H-pyrrolo[2,1-c][1,4]benzodiazepin-3-yl}-[4-(3-dimethylamino-propyl)-piperazin-1-yl]-methanone]",7,–

# Same assay, conditions: value in parentheses
row,Compound,IC50 [nM]
1,"COc1cc(C2=CCCCC2)c(Cl)cc1C(=O)N1Cc2ccc(C(=O)N(C)CCCN(C)C)n2Cc2ccccc21 [Example 3, 10-(5-Chloro-4-cyclohex-1-en-1-yl-2-methoxybenzoyl)-N-[3-(dimethylamino)propyl]-N-methyl-10,11-dihydro-5H-pyrrolo[2,1-c][1,4]benzodiazepine-3-carboxamide citric acid salt]",977
2,"COc1cc(C2=CCCCC2)c(Cl)cc1C(=O)N1Cc2ccc(C(=O)N3CCC[C@H]3CN3CCCC3)n2Cc2ccccc21 [Example 1, 4-Chloro-5-cyclohex-1-en-1-yl-2-[(3-{[(2S)-2-(pyrrolidin-1-ylmethyl)pyrrolidin-1-yl]carbonyl}-5H-pyrrolo [2,1-c][1,4]benzodiazepin-10(11H)-yl)carbonyl]phenyl methyl ether]",1280
3,"{10-[4-(1-Cyclohexen-1-yl)-3-methylbenzoyl]-10,11-dihydro-5H-pyrrolo[2,1-c][1,4]benzodiazepin-3-yl}(4-methyl-piperazin-1-yl)methanone [Example 12]",421
